The species named for test [1] is Homo sapiens. The test can be described thus: Induction of adipogenesis in human bone marrow-derived mesenchymal stem cells assessed as increase in adiponectin production at 30 uM measured on day 5 in presence of IDX by ELISA. Type of test: functional.
Test [2] is described as follows: Induction of adipogenesis in human bone marrow-derived mesenchymal stem cells assessed as increase in adiponectin production at 30 uM measured on day 5 in presence of IDX by ELISA relative to control. Type of test: functional.
Test [3] can be described thus: Induction of adipogenesis in human bone marrow-derived mesenchymal stem cells assessed as increase in adiponectin production at 60 uM measured on day 5 in presence of IDX by ELISA relative to pioglitazone. The following applies: 120 h. Type of test: functional. A general note: An ELISA detects its analyte on a solid surface through an enzyme-linked reagent.
The target of test [4] is T1, Peroxisome proliferator-activated receptor gamma (Homo sapiens) (UniProt P37231).
T1 sequence (whole entry): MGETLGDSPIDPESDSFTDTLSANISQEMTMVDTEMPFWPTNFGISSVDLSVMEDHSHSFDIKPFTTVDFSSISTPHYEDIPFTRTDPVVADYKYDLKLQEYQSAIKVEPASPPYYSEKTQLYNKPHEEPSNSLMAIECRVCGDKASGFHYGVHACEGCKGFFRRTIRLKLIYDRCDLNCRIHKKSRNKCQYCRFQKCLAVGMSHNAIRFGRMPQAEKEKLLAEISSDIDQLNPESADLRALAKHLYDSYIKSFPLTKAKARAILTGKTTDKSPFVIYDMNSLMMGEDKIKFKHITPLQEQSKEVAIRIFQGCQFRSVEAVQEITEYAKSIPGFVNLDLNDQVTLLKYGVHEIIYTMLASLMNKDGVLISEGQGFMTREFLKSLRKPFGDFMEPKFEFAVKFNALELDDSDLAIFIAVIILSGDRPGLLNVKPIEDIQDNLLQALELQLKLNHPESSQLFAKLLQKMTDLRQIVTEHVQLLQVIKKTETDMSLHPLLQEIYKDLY
Kind of test: Inhibition of labeled ligand binding to PPARgamma (unknown origin) at 60 uM by TR-FRET assay relative to control.

The nature of test [5]: cells. The following applies: Homo sapiens, 120 h.
Description: Induction of adipogenesis in human bone marrow-derived mesenchymal stem cells assessed as increase in adiponectin production measured on day 5 in presence of IDX by ELISA
Test [6] addresses T2, Peroxisome proliferator-activated receptor gamma (Homo sapiens, UniProt P37231).
T2 sequence (P37231 whole entry): T1 sequence (whole entry)
Kind of test: (§1) Binding affinity to PPARgamma (unknown origin) by TR-FRET assay.

The target of test [7] is T1, Peroxisome proliferator-activated receptor gamma (Homo sapiens). The test can be described thus: Inhibition of labeled ligand binding to PPARgamma (unknown origin) at 30 uM by TR-FRET assay relative to control.
The target is the same in test [8]. Described as §1.
Test [9] deals with T3, Glucocorticoid receptor (Homo sapiens) (UniProt P04150).
T3 sequence (whole entry): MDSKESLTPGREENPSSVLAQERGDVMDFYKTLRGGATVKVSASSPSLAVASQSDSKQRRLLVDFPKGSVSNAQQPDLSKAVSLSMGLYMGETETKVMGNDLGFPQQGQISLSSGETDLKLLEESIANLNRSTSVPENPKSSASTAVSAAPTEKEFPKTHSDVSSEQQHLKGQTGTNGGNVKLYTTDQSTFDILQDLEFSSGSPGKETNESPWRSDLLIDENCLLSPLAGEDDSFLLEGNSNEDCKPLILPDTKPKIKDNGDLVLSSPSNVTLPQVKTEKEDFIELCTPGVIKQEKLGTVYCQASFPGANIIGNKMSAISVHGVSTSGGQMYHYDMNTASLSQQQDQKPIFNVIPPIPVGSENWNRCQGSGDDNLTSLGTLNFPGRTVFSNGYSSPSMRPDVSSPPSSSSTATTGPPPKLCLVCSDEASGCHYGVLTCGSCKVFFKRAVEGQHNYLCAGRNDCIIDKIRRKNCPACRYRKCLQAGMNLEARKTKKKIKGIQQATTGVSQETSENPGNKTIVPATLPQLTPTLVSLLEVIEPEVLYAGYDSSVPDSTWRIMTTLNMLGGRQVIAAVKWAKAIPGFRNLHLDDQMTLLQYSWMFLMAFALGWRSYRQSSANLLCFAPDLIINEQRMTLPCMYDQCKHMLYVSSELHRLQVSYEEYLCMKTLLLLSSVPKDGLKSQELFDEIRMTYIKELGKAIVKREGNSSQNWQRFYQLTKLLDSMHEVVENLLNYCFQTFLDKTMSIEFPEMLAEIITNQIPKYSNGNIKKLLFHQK
The test can be described thus: Binding affinity to GR (unknown origin) at 30 uM by TR-FRET assay. On the technique in general: TR-FRET usually uses a lanthanide donor and a delayed reading to cut background.

For test [10], the target named is T4, Peroxisome proliferator-activated receptor alpha (Homo sapiens) (UniProt Q07869).
T4 sequence (whole entry): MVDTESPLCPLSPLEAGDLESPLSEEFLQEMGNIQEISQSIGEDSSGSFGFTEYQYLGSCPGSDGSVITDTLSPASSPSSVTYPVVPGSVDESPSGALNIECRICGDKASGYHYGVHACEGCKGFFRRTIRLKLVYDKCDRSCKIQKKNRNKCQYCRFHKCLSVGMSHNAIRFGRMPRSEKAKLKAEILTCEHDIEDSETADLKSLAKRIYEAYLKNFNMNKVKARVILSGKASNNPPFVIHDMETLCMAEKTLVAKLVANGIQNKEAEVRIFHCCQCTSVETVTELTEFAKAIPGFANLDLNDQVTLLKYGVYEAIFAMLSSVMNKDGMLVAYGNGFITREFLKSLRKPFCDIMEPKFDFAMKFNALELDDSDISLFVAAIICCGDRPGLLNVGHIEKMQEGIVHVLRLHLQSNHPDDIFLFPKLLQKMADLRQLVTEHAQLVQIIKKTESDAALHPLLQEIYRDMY
The test can be described thus: Binding affinity to PPARalpha (unknown origin) at 30 uM by TR-FRET assay.

For test [11], the target named is T5, Peroxisome proliferator-activated receptor delta (Homo sapiens) (UniProt Q03181).
T5 sequence (whole entry): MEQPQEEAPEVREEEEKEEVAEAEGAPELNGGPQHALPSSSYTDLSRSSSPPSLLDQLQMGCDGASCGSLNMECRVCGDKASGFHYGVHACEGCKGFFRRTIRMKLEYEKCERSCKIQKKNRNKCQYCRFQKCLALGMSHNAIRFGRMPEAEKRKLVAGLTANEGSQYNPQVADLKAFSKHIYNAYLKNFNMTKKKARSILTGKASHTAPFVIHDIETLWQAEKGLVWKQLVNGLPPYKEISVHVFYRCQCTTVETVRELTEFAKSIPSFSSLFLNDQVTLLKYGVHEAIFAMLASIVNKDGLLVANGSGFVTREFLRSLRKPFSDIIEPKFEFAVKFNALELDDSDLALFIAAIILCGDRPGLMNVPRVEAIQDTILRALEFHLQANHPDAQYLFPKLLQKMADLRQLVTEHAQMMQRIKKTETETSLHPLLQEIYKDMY
The test can be described thus: Binding affinity to PPARdelta (unknown origin) at 30 uM by TR-FRET assay.

Test [12] has as its target T6, Oxysterols receptor LXR-alpha (Homo sapiens) (UniProt Q13133).
T6 sequence (whole entry): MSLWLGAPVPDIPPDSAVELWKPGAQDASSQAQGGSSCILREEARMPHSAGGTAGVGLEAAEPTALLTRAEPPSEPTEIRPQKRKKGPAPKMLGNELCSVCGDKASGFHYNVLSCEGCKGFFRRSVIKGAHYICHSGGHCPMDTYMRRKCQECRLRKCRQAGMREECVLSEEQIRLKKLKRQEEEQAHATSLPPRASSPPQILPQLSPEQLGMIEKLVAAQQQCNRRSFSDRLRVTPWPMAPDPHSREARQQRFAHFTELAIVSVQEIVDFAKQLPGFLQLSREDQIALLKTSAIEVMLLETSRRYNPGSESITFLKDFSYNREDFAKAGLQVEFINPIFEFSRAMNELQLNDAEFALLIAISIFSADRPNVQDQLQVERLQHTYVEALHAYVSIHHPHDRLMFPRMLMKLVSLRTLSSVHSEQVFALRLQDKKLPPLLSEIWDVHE
Kind of test: Binding affinity to LXRalpha (unknown origin) at 30 uM by TR-FRET assay.

Active and inactive are the calls of the source. The rule behind the calls is not given here.

Turning to `O=C1C=C(CCc2ccccc2)OC2C1[C@@H]1O[C@@H]1[C@H](O)[C@H]2O` (relative stereo), in [1], the result was Active.
As usually defined, the Emax is the size of the effect at its maximum, as opposed to the concentration needed. What is called inhibition is the drop in the measured response relative to a control, in per cent. The low end stands for a response near the control, the high end for a response far below the control. By EC50 is commonly meant the concentration that produces a half-maximal response. Low readings indicate higher potency in that assay, high ones lower potency in that assay. On to `O=c1cc(CCc2ccccc2)oc2ccc(O)c(O)c12`, for which the result in test [1] was Active. In addition, in [2], the “fold change (FC)” value is 1.97. Besides, the Emax at 60 µM in [3] turned out to be 48%. This compound registered an inhibition in test [4] of 41.1%. In test [5], this compound gave an EC50 of more than 60 µM.
In the case of `O=c1cc(CCc2ccccc2)oc2c(O)cccc12`, in test [1], the result was inactive.
Same read-out and setting: in the case of `O=c1cc(CCc2ccccc2O)oc2ccccc12` it was “inactive”.
In general, Ki refers to a measure of affinity in units of concentration, obtained from inhibition or displacement. A high value points to weaker binding. In the case of `COc1ccc(Cl)cc1C(=O)NCCc1ccc(S(=O)(=O)NC(=O)NC2CCCCC2)cc1` [GLYBURIDE], the Ki in test [6] amounted to 0.66 µM. For the same compound, the EC50 in [5] stood at 2.95 µM.
`O=c1cc(CCc2ccccc2)oc2cccc(O)c12`: in [1], the result was Active.
In the case of `O=c1cc(CCc2ccccc2)oc2c(Cl)cc(O)cc12`, the result in test [1] was Active.
Take `COc1ccc2c(=O)cc(CCc3ccccc3)oc2c1`: the outcome in [1] was Active. In test [7], this compound showed an inhibition of 50.3%. Besides, in test [8], the Activity entry was “Dose-dependent effect”. In test [6], this compound returned an inhibition constant Ki of 14.9 µM. Also, the outcome in test [9], in test [10], in test [11] and in [12] was inactive. In [5], this compound showed a 50% effective concentration (EC50) of 20.3 µM.
For `COc1ccc2oc(CCc3ccccc3)cc(=O)c2c1O`, in test [1], the outcome was Active.

These data come from ChEMBL document CHEMBL4330147, “Adiponectin-Secretion-Promoting Phenylethylchromones from the Agarwood of Aquilaria malaccensis” (J Nat Prod, 2019).
